Data: US6896895B2, “Carotenoid esters, carotenoid-enriched feeds, and methods of pigmenting foods and foodstuffs” (DSM IP Assets B.V., priority 2000, dated 2005)

Test system: not listed separately
Assay: Carotenoid ester content in plasma, back skin and abdominal fat of broilers (HPLC)
Assay type: in vivo, broiler chickens (Ross 308, Ross 508)
Conditions: average over doses, Table 4
Protocol: (§1) Pigmentation efficacy was assessed in egg yolk, in the back skin of the broiler carcass, and in broiler shanks by reflectance colorimetry accompanied by visual scoring (Roche Colour Fan). The deposition of the ethyl-β-apo-8′-carotenoate (control) and the other carotenoid esters was determined in egg yolk and in the broiler back skin. In addition, the carotenoid levels in plasma and abdominal fat were measured.
(§2) The trials were carried out using chickens of the type Ross 308 (trials MC-24/98 and MC-02/99) and Ross 508 (trials MC-11/99, MC-16/99, MC-24/99, and MC-03/00) (Couvir de la Bohardière, F-49290 Saint Laurent de la Plaine). One-day old broiler chickens, separated by sex, were divided by weight into experimental groups of ten animals each and reared in floor pens littered with wood shavings. The chickens were fed a low carotenoid basal grower diet until day 22 (trials MC-24/98, MC-02/99, and MC-11/99) or until day 15 (trials MC-16/99, MC-24/99, and MC-03/00). The low carotenoid basal grower diet contained less than 2 mg total xanthophylls per kg of feed, and its composition is described in Table 2. For the subsequent experimental period of three weeks, the birds received the basal diet supplemented with an appropriate pigment. The feed was given in the form of crumbled pellets during the first week and as pellets thereafter. The animals had unrestricted access to feed and water. A given treatment involved one group of male and one group of female chickens. Each group of chickens was weighed at day 22 (trials MC-24/98, MC-02/99, and MC-11/99) or day 15 (trials MC-16/99, MC-24/99, and MC-03/00) and on day 43. On day 42, five chickens per group were selected at random, labelled, and blood samples were taken from the jugular vein. At the end of the experiment (day 44) the animals were slaughtered in a commercial slaughterhouse (Freyburger, Dannemarie, France). The following day, the color of the skin (hind back of carcasses) and the shanks of the labelled chicken were measured by reflectance colorimetry (Minolta CR 200 apparatus, CIE-Lab system). Samples of the dorsal skin and abdominal fat were obtained, pooled for each experimental group, and the carotenoid concentration was determined. The concentration of carotenoids in feed, plasma, skin, and abdominal fat was determined by standard procedures as described after Tables 1 and 2.
The content of the various carotenoid esters in feed was determined according to the method of Schierle, et al. (J. Schierle , N. Faccin, V. Riegert, Analytical Methods for Vitamins and Carotenoids in Feed, Revised supplement: Determination of Stabilized Apocarotenoic Ester and Canthaxanthin in Premixes and Feeds, Roche publication no. 50771 (1995), publicly available from. F. Hoffmann-La Roche Ltd., CH-4070 Basel). This method was modified in that the mobile phase of the normal-phase HPLC contained 0.5% instead of 7% acetone in n-hexane, improving the separation of the E/Z-isomers of the carotenoid esters. Peaks were related to all-E- and Z-isomers of the various carotenoid esters by chromatography of heat-isomerized solutions of the respective reference substances in n-hexane. The HPLC system was calibrated with the all-E-isomer of ethyl β-apo-8′-carotenoate. The response factor of the various derivatives was deduced from that of ethyl β-apo-8′-carotenoate taking into account the respective molecular weight. The content of the Z-isomer fractions was calculated based on the response of the all-E-isomer and using a correction factor of 1.4 to account for the lower specific absorbance of the Z-isomers.
(§3) The HPLC-system for in-feed analysis was also used to quantify the carotenoid esters in egg yolk, broiler tissues, and broiler plasma, but the extraction procedure was different for the various matrices.
For plasma extraction, 1.0 g of the well-mixed plasma sample was introduced into a 10 ml test tube with 1.0 ml of demineralized water and 4.0 ml of ethanol, and the contents mixed on a Vortex shaker. […]

Analytical Content as Equivalent of Ethyl β-apo-8′-carotenoate in % of control Fat [%]	Analytical Content as Equivalent of Ethyl β-apo-8′-carotenoate in % of control Plasma [%]	Analytical Content as Equivalent of Ethyl β-apo-8′-carotenoate in % of control Skin [%]	Structure (SMILES)
62	78	76	CC(C=CC=C(C)C=CC1=C(C)CCCC1(C)C)=CC=CC=C(C)C=CC=C(C)C(=O)OCC(C)(C)C [(8), 2,2-dimethylpropyl beta-apo-8′-carotenoate]
45	59	55	CCC(CC)COC(=O)C(C)=CC=CC(C)=CC=CC=C(C)C=CC=C(C)C=CC1=C(C)CCCC1(C)C [(9), 2-ethyl-1-butyl beta-apo-8′-carotenoate]

Test system: egg yolk
Assay: Egg yolk colour: reflectance colorimetry and Roche Yolk Colour Fan
Assay type: in vivo, laying hens (ISA Brown)
Conditions: egg yolk, laying hens; trial H-25/99; 5.0 mg/kg feed; Table 8
Protocol: as §1
The trials were carried out following the standard experimental design used for egg yolk pigmentation trials at the Roche Research Center for Animal Nutrition (CRNA, F-68305 Village-Neuf, France). Each year in February the pigmentation trials are started with a new flock of layers. At the beginning of the trials the age of the laying hens (192 birds, type ‘ISA Brown’) were as follows:
(§4) Preceding the trials the hens were fed a low carotenoid basal diet (produced at the CRNA) without carotenoid supplementation for at least 28 days. During the trials, the control group received the low carotenoid basal diet containing less than 2 mg total xanthophylls per kg of feed. The other animals were fed this diet supplemented with the appropriate pigments for three weeks. The diet was given to the animals ad libitum in mash form. The hens had free access to tap water. Beside the unsupplemented control treatment, treatments were carried out involving the provision of supplemented feed, the results of these treatments being presented in Tables 7-9.
Egg yolk color was assessed as described by Steinberg, et al. (Arch. Geflügelk 64 (4), 180-187 (2000)). The yolks were manually separated from the whites of the eggs. The isolated yolks of three to six eggs were combined, weighed, and stirred with a glass rod until the color appeared homogeneous. The color hue was visually scored using the Roche Yolk Colour Fan (RYCF, version 1993). An aliquot of the pooled egg yolks was transferred into a glass cuvette yielding an approximately 2 cm thick layer. The color was then measured by means of a Dr. Lange Xeno Color LS 100 spectro-colorimeter with diffuse D65-illumination and a 8° viewing angle.
(§5) The color data were expressed as CIE L*a*b*-values including h*(hue) and C* (chroma). The values given in the tables per treatment and trial represent averages of color measurements of four egg yolk pools, ten broiler back skins, or ten broiler shanks (5 males and 5 females).

Structure (SMILES)	Color Fan Value % of Controls [%]
CC(C=CC=C(C)C=CC1=C(C)CCCC1(C)C)=CC=CC=C(C)C=CC=C(C)C(=O)OCC(C)(C)C [(8), 2,2-dimethylpropyl beta-apo-8′-carotenoate]	108
CCC(CC)COC(=O)C(C)=CC=CC(C)=CC=CC=C(C)C=CC=C(C)C=CC1=C(C)CCCC1(C)C [(9), 2-ethyl-1-butyl beta-apo-8′-carotenoate]	101

Same assay, conditions: egg yolk, laying hens; trial H-25/99; 5.0 mg/kg feed; Table 10

Structure (SMILES)	Chroma C*ab % of Controls [%]	Color Fan Value % of Controls [%]	Color Hue h*ab % of Controls [%]
CC(C=CC=C(C)C=CC1=C(C)CCCC1(C)C)=CC=CC=C(C)C=CC=C(C)C(=O)OCC(C)(C)C [(8), 2,2-dimethylpropyl beta-apo-8′-carotenoate]	94	108	101
CCC(CC)COC(=O)C(C)=CC=CC(C)=CC=CC=C(C)C=CC=C(C)C=CC1=C(C)CCCC1(C)C [(9), 2-ethyl-1-butyl beta-apo-8′-carotenoate]	99	101	92

Test system: skin and shanks of broilers
Assay: Reflectance colorimetry and visual classification of skin and shanks of broilers
Assay type: in vivo, broiler chickens (Ross 308, Ross 508)
Parameters: key to Shanks Visual Classification / Skin Visual Classification: −; (+); +; ++ = good color; o = orange
Conditions: dry carcasses, average over doses, Table 6
Protocol: as §1, §2
The color of broiler skin and shanks was measured using a tristimulus Minolta CR-300 Chromameter with diffuse D65-illumination and a 0° viewing angle. The color of the skin was read at three different points on the back of the dry broiler carcasses and average values of the triple measurements were recorded. The color of shanks was measured using single measurements at the ball between the toes.
as §5

Structure (SMILES)	Shanks Chroma C*ab % of Controls [%]	Shanks Color Hue h*ab % of Controls [%]	Shanks Visual Classification	Skin Chroma C*ab % of Controls [%]	Skin Color Hue h*ab % of Controls [%]	Skin Visual Classification
CC(C=CC=C(C)C=CC1=C(C)CCCC1(C)C)=CC=CC=C(C)C=CC=C(C)C(=O)OCC(C)(C)C [(8), 2,2-dimethylpropyl beta-apo-8′-carotenoate]	98	101	(+)	98	100	(+)
CCC(CC)COC(=O)C(C)=CC=CC(C)=CC=CC=C(C)C=CC=C(C)C=CC1=C(C)CCCC1(C)C [(9), 2-ethyl-1-butyl beta-apo-8′-carotenoate]	92	101	(+)	82	101	+

Test system: not listed separately
Assay: Carotenoid ester content and deposition rate in egg yolk of laying hens (HPLC)
Assay type: in vivo, laying hens (ISA Brown)
Conditions: egg yolk, trial H-25/99, 5.0 mg/kg feed, Table 8
Protocol: as §1
Each year in February the pigmentation trials are started with a new flock of layers.
as §4, with “water.” for “water. Beside the unsupplemented control treatment, treatments were carried out involving the provision of supplemented feed, the results of these treatments being presented in Tables 7-9.”
Peaks were related to all-E- and Z-isomers of the various carotenoid esters by chromatography of heat-isomerized solutions of the respective reference substances in n-hexane. The HPLC system was calibrated with the all-E-isomer of ethyl β-apo-8′-carotenoate. The response factor of the various derivatives was deduced from that of ethyl β-apo-8′-carotenoate taking into account the respective molecular weight. The content of the Z-isomer fractions was calculated based on the response of the all-E-isomer and using a correction factor of 1.4 to account for the lower specific absorbance of the Z-isomers.
as §3
For the extraction of egg yolk, 10 g of pooled and homogenised yolk were mixed with 10 ml of demineralized water using a dispersion instrument (Polytron). 1.0 g of diluted egg yolk was introduced into a 10 ml test tube with 1.0 ml of demineralized water and 2.0 ml of ethanol, and the contents were mixed on a Vortex shaker. After addition of 4.0 ml of n-hexane, the mixture was further treated as described for plasma.

Deposition Rate Target Values % of Controls [%]	Ethyl β-apo-8′-carotenoate Equivalents % of Controls [%]	Structure (SMILES)
89	81	CC(C=CC=C(C)C=CC1=C(C)CCCC1(C)C)=CC=CC=C(C)C=CC=C(C)C(=O)OCC(C)(C)C [(8), 2,2-dimethylpropyl beta-apo-8′-carotenoate]
87	77	CCC(CC)COC(=O)C(C)=CC=CC(C)=CC=CC=C(C)C=CC=C(C)C=CC1=C(C)CCCC1(C)C [(9), 2-ethyl-1-butyl beta-apo-8′-carotenoate]

Same assay, conditions: egg yolk, trial H-25/99, 5.0 mg/kg feed, Table 10

Deposition Rate % of Controls [%]	Structure (SMILES)
89	CC(C=CC=C(C)C=CC1=C(C)CCCC1(C)C)=CC=CC=C(C)C=CC=C(C)C(=O)OCC(C)(C)C [(8), 2,2-dimethylpropyl beta-apo-8′-carotenoate]
87	CCC(CC)COC(=O)C(C)=CC=CC(C)=CC=CC=C(C)C=CC=C(C)C=CC1=C(C)CCCC1(C)C [(9), 2-ethyl-1-butyl beta-apo-8′-carotenoate]
